Reference: patent US20120122791A1, “SUBSTRATE FOR CARTILAGE CULTIVATION USING ARTIFICIAL COLLAGEN, AND METHOD FOR CARTILAGE REGENERATION TREATMENT USING THE SUBSTRATE” (JNC CORPORATION, priority 2009, published 2012)

Tests used:
cartilage defect model = assay: Cartilage regeneration by intraarticular administration in cartilage defect model (modified ICRS score, Safranin-0 staining, type 2 collagen immunostaining); assay type: in vivo, New Zealand white domestic rabbits; details: for macroscopic observation of knee joints: collected Week 7; for Safranin-0-stained area ratio compared to control group / Safranin-0 stained area compared to control group / type 2 collagen antibody-immunostained area compared to control group / type 2 collagen antibody-immunostained area ratio compared to control group: intraarticular
Experimental: A cartilage defect with a diameter of 5 mm was made on the patellofemoral joint of each of 18 knees of 9 New Zealand white domestic rabbits (22 week-old, 3.4 to 3.8 kg) after anesthesia, and further, a wound was sutured to prepare a cartilage defect model (Week 0). The 18 knees were divided into 3 groups, and on Week 1, Week 3, and Week 5, physiological saline was administered for a control group, and an intraarticular injection (0.1 ml/kg) was performed for an artificial collagen aqueous solution administration group. After that, knee joints were collected on Week 7. The ICRS score in Table 4 below is an evaluation method generally used when cartilage grafting to a cartilage defect is performed. The inventors of the present invention adopted, as an evaluation method in the case of administering a medicament without performing cartilage grafting, a modified ICRS score, which is an evaluation method involving using two items of “Degree of defect repair” and “Macroscopic appearance” and performing evaluation with a total score of 0 to 8. […] As recognized from the result of modified ICRS score described in FIG. 12, cartilage regeneration could be achieved by the intraarticular administration of the artificial collagen aqueous solution as the substrate for cartilage cultivation of the present invention. It should be noted that the results with a modified ICRS score are expressed as an average of scores of 6 knees for the control group, an average of 6 knees for the 0.1% (W/V) group, and an average of 6 knees for the 0.5% (W/V) group. In addition, a Mann-Whitney U test was used for statistics. […] The stained areas of the 0.1% (W/V) artificial collagen administration group and the 0.5% (W/V) artificial collagen administration group were larger compared to the stained area of the control group. In particular, a proteoglycan was present in a large amount. In addition, the stained area ratios of the 0.1% (W/V) artificial collagen administration group and the 0.5% (W/V) artificial collagen administration group were larger compared to the stained area ratio of the control group. […] The stained areas of the 0.1% (W/V) artificial collagen administration group and the 0.5% (W/V) artificial collagen administration group were larger compared to the stained area of the control group. In addition, the stained area ratios of the 0.1% (W/V) artificial collagen administration group and the 0.5% (W/V) artificial collagen administration group were larger compared to the stained area ratio of the control group.

aggrecan mRNA = assay: Aggrecan mRNA amount in cartilage cells by addition of artificial collagen aqueous solution (real-time PCR); assay type: cell-based, New Zealand white rabbits; details: relative to 0% defined as 1
Experimental: (§1) Shoulder joints and knee joints were extirpated from 5 New Zealand white rabbits (male, 8- to 9 week-old), and only a cartilage layer was excised and sampled with a surgical knife. After washing with a sterilized PBS solution, pronase was added to 25 ml of Dulbecco's Modified Eagle's medium+gentacin (25 μg/ml) at a concentration of 0.4% (W/V), and incubation was performed at 37° C. for 2 hours. The solution was supplemented with collagenase at a concentration of 0.025% (W/V), and incubated at 37° C. overnight. The resulting solution was washed to collect cartilage cells. After that, the cartilage cells were seeded into a dish with a diameter of 90 mm at 1 to 2×10^6 cells/dish, and a medium exchange was performed once every 3 days. At the time point where the cells became confluent, subcultivation was performed only once. The following experiments were performed by using cells which had been subcultivated once. Further, the composition of a cultivation medium is as described below.
(§2) Cartilage cells in a semi-confluent state were detached from a dish by a tripsin-EDTA solution treatment, supplemented with a cultivation medium, and then washed by centrifugation. After that, the cells were seeded into a 12-well plate at 3×10^5 cells/well, and cultivation was started under conditions of 37° C. and 5% CO2.
(§3) At 24 hours after the start of the cultivation, a 1% (W/V) artificial collagen aqueous solution was diluted with a cultivation medium to prepare 0.10, 0.20, 0.30, 0.40, and 0.50% (W/V) artificial collagen aqueous solutions. Then, cultivation was performed for 4, 7, 14, and 21 days. It should be noted that a 0% (W/V) artificial collagen aqueous solution was used as a control.
(§4) After the completion of the above-mentioned cultivation, the cartilage cells were collected, and RNA extraction was performed by using RNeasy (registered trademark) Mini Kit (QIAGEN). A reverse transcription reaction was performed by using QuantiTect (registered trademark) Reverse Transcription Kit (QIAGEN). To be more specific, Real-time PCR was performed by the following method.
(§5) The model used for Real-time PCR was ABI PRISM 7000 (Applied Biosystems), and the reagents used were Real-time PCR Master Mix (TOYOBO) and Pre-Developed TaqMan & reg; Assay Reagents Eukaryotic 18S rRNA (Applied Biosystems), TaqMan & reg; Probe kit (Applied Biosystems).
(§6) At 50° C. for 2 minutes, at 95° C. for 10 minutes (at 95° C. for 15 seconds, at 60° C. for 1 minute)×40 cycles.

cartilage cells = assay: Proteoglycan production ability of cartilage cells (Na2 35SO4 incorporation) by addition of artificial collagen aqueous solution; assay type: cell-based, New Zealand white rabbits; details: 7 days, vs 0% control
Experimental: as §1
Cartilage cells in a semi-confluent state were detached from a dish by a tripsin-EDTA solution treatment, supplemented with a cultivation medium, and washed by centrifugation. After that, the cells were seeded into a 6-well plate at 1.5×10^6 cells/well and cultivated under conditions of 37° C. and 5% CO2.
At 24 hours after the start of the cultivation, a 1% (W/V) artificial collagen aqueous solution was diluted with a cultivation medium to prepare 0.10, 0.20, 0.30, 0.40, and 0.50% (W/V) artificial collagen aqueous solutions. The artificial collagen aqueous solutions were allowed to act on the cells for an additional 7 days, and further supplemented with 10 μCi/ml Na2^35SO4 to perform cultivation for the last 24 hours. A medium exchange was performed once every 3 days. It should be noted that a 0% (W/V) artificial collagen aqueous solution was used as a control.
After the completion of the above-mentioned cultivation, the cells were washed with a fresh cultivation medium, and a lysis buffer (4 M GuHCl, 0.05 M NaAC, pH 6.0) supplemented with protease inhibitors (0.1 M 6-aminohexanoic acid, 0.005 M benzamidine hydrochloride, 0.01 M Nae EDTA, 0.01 M N-ethylmaleimide, and 0.001 M phenylmethyl sulfonyl fluoride) was added into each well. The cells were extracted at 4° C. for 4 hours, and centrifuged at 15000 rpm at 4° C. for 20 minutes.
The cells were eluted with an elution buffer (4 M GuHCl, 0.05 M Na acetate, 0.1 M Na sulfate, and 0.5% Triton X-10 (pH 7.5)) by using a PD-10 pre-packed column (GE Healthcare Bio-Sciences Ltd.) to fractionate samples. To each of the fractionated samples, ethanol and a scintillator were added and mixed, and the radioactivity content (cpm) was measured with a liquid scintillation counter. Further, the DNA amount of each of the samples used in this case was measured with a Hoechst 33258 dye to determine a DNA value expressed as cpm/mg.

type 2 collagen mRNA = assay: Type 2 collagen mRNA amount in cartilage cells by addition of artificial collagen aqueous solution (real-time PCR); assay type: cell-based, New Zealand white rabbits; details: relative to 0% defined as 1
Experimental: as §1, §2, §3, §4, §5, §6

Poly(Tripeptide-6) [artificial collagen aqueous solution]
many knee joints have smooth surfaces: macroscopic observation of knee joints (cartilage defect model; 0.1% (W/V), intraarticular 0.1 ml/kg on Week 1, 3, 5)
significantly lowered: aggrecan mRNA amount (aggrecan mRNA; Day 21, 0.20% (W/V)) | aggrecan mRNA amount (aggrecan mRNA; Day 21, 0.30% (W/V)) | aggrecan mRNA amount (aggrecan mRNA; Day 21, 0.40% (W/V)) | aggrecan mRNA amount (aggrecan mRNA; Day 21, 0.50% (W/V))
larger: Safranin-0-stained area ratio compared to control group (cartilage defect model; 0.1% (W/V), Week 7) | Safranin-0 stained area compared to control group (cartilage defect model; 0.1% (W/V), Week 7) | type 2 collagen antibody-immunostained area compared to control group (cartilage defect model; 0.1% (W/V), Week 7) | type 2 collagen antibody-immunostained area ratio compared to control group (cartilage defect model; 0.1% (W/V), Week 7) | Safranin-0-stained area ratio compared to control group (cartilage defect model; 0.5% (W/V), Week 7) | Safranin-0 stained area compared to control group (cartilage defect model; 0.5% (W/V), Week 7) | type 2 collagen antibody-immunostained area compared to control group (cartilage defect model; 0.5% (W/V), Week 7) | type 2 collagen antibody-immunostained area ratio compared to control group (cartilage defect model; 0.5% (W/V), Week 7)
lowered: type 2 collagen mRNA expression (type 2 collagen mRNA; Day 7, 0.40% (W/V)) | type 2 collagen mRNA expression (type 2 collagen mRNA; Day 7, 0.50% (W/V)) | type 2 collagen mRNA expression (type 2 collagen mRNA; Day 21, 0.40% (W/V)) | type 2 collagen mRNA expression (type 2 collagen mRNA; Day 21, 0.50% (W/V))
many sparse fissures: macroscopic observation of knee joints (cartilage defect model; 0.5% (W/V), intraarticular 0.1 ml/kg on Week 1, 3, 5)
no significant change: aggrecan mRNA amount (aggrecan mRNA; Day 4, the respective concentrations (0.10 to 0.50% (W/V))) | aggrecan mRNA amount (aggrecan mRNA; Day 7, the respective concentrations (0.10 to 0.50% (W/V)))
significantly enhanced: proteoglycan production (cartilage cells; 0.10% (W/V)) | proteoglycan production (cartilage cells; 0.20% (W/V)) | proteoglycan production (cartilage cells; 0.30% (W/V)) | proteoglycan production (cartilage cells; 0.40% (W/V)) | proteoglycan production (cartilage cells; 0.50% (W/V)) | type 2 collagen mRNA expression (type 2 collagen mRNA; Day 4, 0.10% (W/V))
significant difference: modified ICRS score vs control group (cartilage defect model; 0.1% (W/V), intraarticular 0.1 ml/kg on Week 1, 3, 5, Week 7, Mann-Whitney U test)
